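Values below derive from 48-hour exposures of cells grown in 96-well plates, with endpoints linearly interpolated between the two concentrations bracketing the appropriate inhibition level. GI50: concentration for 50% inhibition of growth. TGI: total growth inhibition.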
How the values were obtained:
Assay in all cases: growth of human tumour cells (NCI), 48 h
SK-MEL-5 melanoma = tested on: SK-MEL-5 melanoma
786-0 renal = tested on: 786-0 renal
BT-549 breast = tested on: BT-549 breast
SW-620 colon = tested on: SW-620 colon
NCI-H522 lung = tested on: NCI-H522 lung
DU-145 prostate = tested on: DU-145 prostate
T-47D breast = tested on: T-47D breast
SK-MEL-2 melanoma = tested on: SK-MEL-2 melanoma
HCT-15 colon = tested on: HCT-15 colon
NCI-H23 lung = tested on: NCI-H23 lung

COc1cc(N2CCN(C(C)C)CC2)ccc1Nc1nc(Nc2cccc(F)c2C(=O)O)c2cc[nH]c2n1
GI50 (SK-MEL-5 melanoma): > 25 µM
TGI (SK-MEL-5 melanoma): > 25 µM
GI50 (786-0 renal): > 25 µM
TGI (786-0 renal): > 25 µM
GI50 (BT-549 breast): > 25 µM
TGI (BT-549 breast): > 25 µM
GI50 (SW-620 colon): > 25 µM
TGI (SW-620 colon): > 25 µM
GI50 (NCI-H522 lung): > 25 µM
TGI (NCI-H522 lung): > 25 µM
GI50 (DU-145 prostate): > 25 µM
TGI (DU-145 prostate): > 25 µM
GI50 (T-47D breast): > 25 µM
TGI (T-47D breast): > 25 µM
GI50 (SK-MEL-2 melanoma): > 25 µM
TGI (SK-MEL-2 melanoma): > 25 µM
GI50 (HCT-15 colon): > 25 µM
TGI (HCT-15 colon): > 25 µM
GI50 (NCI-H23 lung): > 25 µM
TGI (NCI-H23 lung): > 25 µM

CCCCNC(=O)c1cc(NCc2cc(O)ccc2O)ccc1O
GI50 (SK-MEL-5 melanoma): 15.4 µM
TGI (SK-MEL-5 melanoma): 29.6 µM
GI50 (786-0 renal): 10.8 µM
TGI (786-0 renal): 23.2 µM
GI50 (BT-549 breast): 3.24 µM
TGI (BT-549 breast): 13.5 µM
GI50 (SW-620 colon): 18.9 µM
TGI (SW-620 colon): 43.4 µM
GI50 (NCI-H522 lung): 1.32 µM
TGI (NCI-H522 lung): 2.94 µM
GI50 (DU-145 prostate): 15.9 µM
TGI (DU-145 prostate): 29.6 µM
GI50 (T-47D breast): 6.39 µM
TGI (T-47D breast): 39.1 µM
GI50 (SK-MEL-2 melanoma): 22.8 µM
TGI (SK-MEL-2 melanoma): 65 µM
GI50 (HCT-15 colon): 10.7 µM
TGI (HCT-15 colon): 32.4 µM
GI50 (NCI-H23 lung): 17.1 µM
TGI (NCI-H23 lung): 40.5 µM

Oc1ccc(CCNCc2cc3c(cc2Br)OCO3)cc1
TGI (SK-MEL-5 melanoma): > 100 µM
TGI (786-0 renal): > 100 µM
TGI (BT-549 breast): > 100 µM
TGI (SW-620 colon): > 100 µM
TGI (NCI-H522 lung): > 100 µM
TGI (DU-145 prostate): > 100 µM
TGI (T-47D breast): > 100 µM
TGI (SK-MEL-2 melanoma): 74.6 µM
TGI (HCT-15 colon): > 100 µM
TGI (NCI-H23 lung): > 100 µM

Cc1ccn2c(CCc3nnc4cc(C)ccn34)nnc2c1
TGI (SK-MEL-5 melanoma): > 100 µM
TGI (786-0 renal): > 100 µM
TGI (BT-549 breast): > 100 µM
TGI (SW-620 colon): > 100 µM
TGI (NCI-H522 lung): > 100 µM
TGI (DU-145 prostate): > 100 µM
TGI (T-47D breast): > 100 µM
TGI (SK-MEL-2 melanoma): > 100 µM
TGI (HCT-15 colon): > 100 µM
TGI (NCI-H23 lung): > 100 µM

O=C1C(=O)c2ccccc2C(O)=C1CCCc1ccc(C2CCCCCC2)cc1
GI50 (SK-MEL-5 melanoma): 0.445 µM
TGI (SK-MEL-5 melanoma): 11.5 µM
GI50 (786-0 renal): 0.465 µM
TGI (786-0 renal): 17 µM
GI50 (BT-549 breast): 1.14 µM
TGI (BT-549 breast): 19.5 µM
GI50 (SW-620 colon): 0.576 µM
TGI (SW-620 colon): 33.2 µM
GI50 (NCI-H522 lung): 2.64 µM
TGI (NCI-H522 lung): 32.7 µM
GI50 (DU-145 prostate): 0.72 µM
TGI (DU-145 prostate): 34.3 µM
GI50 (T-47D breast): 3.46 µM
TGI (T-47D breast): > 45.8 µM
GI50 (SK-MEL-2 melanoma): 1.12 µM
TGI (SK-MEL-2 melanoma): 21.4 µM
GI50 (HCT-15 colon): 0.539 µM
TGI (HCT-15 colon): > 85.9 µM
GI50 (NCI-H23 lung): 0.649 µM
TGI (NCI-H23 lung): 15.8 µM

CCCCC(=O)N/N=C/c1c(O)ccc2ccccc12
GI50 (SK-MEL-5 melanoma): 1.84 µM
TGI (SK-MEL-5 melanoma): 11.4 µM
GI50 (786-0 renal): 3.65 µM
TGI (786-0 renal): > 59.2 µM
GI50 (BT-549 breast): 0.537 µM
TGI (BT-549 breast): 6.6 µM
GI50 (SW-620 colon): 3.54 µM
TGI (SW-620 colon): > 100 µM
GI50 (NCI-H522 lung): 1.77 µM
TGI (NCI-H522 lung): 10.2 µM
GI50 (DU-145 prostate): 2.7 µM
TGI (DU-145 prostate): > 100 µM
GI50 (T-47D breast): 3.03 µM
TGI (T-47D breast): > 100 µM
GI50 (SK-MEL-2 melanoma): 3.67 µM
TGI (SK-MEL-2 melanoma): > 23.7 µM
GI50 (HCT-15 colon): 0.532 µM
TGI (HCT-15 colon): > 100 µM
GI50 (NCI-H23 lung): 4.14 µM
TGI (NCI-H23 lung): > 100 µM

C[C@]1(Cn2ccnn2)C(C(=O)O)N2C(=O)CC2S1(=O)=O (stereo not given in full)
GI50 (SK-MEL-5 melanoma): > 100 µM
TGI (SK-MEL-5 melanoma): > 100 µM
GI50 (786-0 renal): > 100 µM
TGI (786-0 renal): > 100 µM
GI50 (BT-549 breast): > 100 µM
TGI (BT-549 breast): > 100 µM
GI50 (SW-620 colon): > 100 µM
TGI (SW-620 colon): > 100 µM
GI50 (NCI-H522 lung): > 100 µM
TGI (NCI-H522 lung): > 100 µM
GI50 (DU-145 prostate): > 100 µM
TGI (DU-145 prostate): > 100 µM
GI50 (T-47D breast): > 100 µM
TGI (T-47D breast): > 100 µM
GI50 (SK-MEL-2 melanoma): > 100 µM
TGI (SK-MEL-2 melanoma): > 100 µM
GI50 (HCT-15 colon): > 100 µM
TGI (HCT-15 colon): > 100 µM
GI50 (NCI-H23 lung): > 100 µM
TGI (NCI-H23 lung): > 100 µM

c1cncc(C2Nc3cccc4cccc(c34)N2)c1
GI50 (SK-MEL-5 melanoma): 66.3 µM
TGI (SK-MEL-5 melanoma): > 100 µM
GI50 (786-0 renal): > 100 µM
TGI (786-0 renal): > 100 µM
GI50 (BT-549 breast): 29.5 µM
TGI (BT-549 breast): 95 µM
GI50 (SW-620 colon): 18.4 µM
TGI (SW-620 colon): 36.3 µM
GI50 (NCI-H522 lung): 14.6 µM
TGI (NCI-H522 lung): 35.1 µM
GI50 (DU-145 prostate): > 100 µM
TGI (DU-145 prostate): > 100 µM
GI50 (T-47D breast): 2.62 µM
TGI (T-47D breast): 9.29 µM
GI50 (SK-MEL-2 melanoma): 30.9 µM
TGI (SK-MEL-2 melanoma): 64.4 µM
GI50 (HCT-15 colon): 26.3 µM
TGI (HCT-15 colon): > 100 µM
GI50 (NCI-H23 lung): 77.6 µM
TGI (NCI-H23 lung): > 100 µM

COC(=O)C(CBr)CBr
TGI (SK-MEL-5 melanoma): 25.1 µM
TGI (786-0 renal): 8.91 µM
TGI (BT-549 breast): 6.58 µM
TGI (SW-620 colon): 3.11 µM
TGI (NCI-H522 lung): 4.76 µM
TGI (DU-145 prostate): 31.9 µM
TGI (T-47D breast): 7.22 µM
TGI (SK-MEL-2 melanoma): 30.5 µM
TGI (HCT-15 colon): 3.75 µM
TGI (NCI-H23 lung): 19.5 µM

Cc1cc(C(=O)O)c(C)n1-c1cccc(C(=O)O)c1
GI50 (SK-MEL-5 melanoma): > 100 µM
TGI (SK-MEL-5 melanoma): > 100 µM
GI50 (786-0 renal): > 100 µM
TGI (786-0 renal): > 100 µM
GI50 (BT-549 breast): > 100 µM
TGI (BT-549 breast): > 100 µM
GI50 (SW-620 colon): > 100 µM
TGI (SW-620 colon): > 100 µM
GI50 (NCI-H522 lung): > 100 µM
TGI (NCI-H522 lung): > 100 µM
GI50 (DU-145 prostate): > 100 µM
TGI (DU-145 prostate): > 100 µM
GI50 (T-47D breast): > 100 µM
TGI (T-47D breast): > 100 µM
GI50 (SK-MEL-2 melanoma): > 100 µM
TGI (SK-MEL-2 melanoma): > 100 µM
GI50 (HCT-15 colon): > 100 µM
TGI (HCT-15 colon): > 100 µM
GI50 (NCI-H23 lung): > 100 µM
TGI (NCI-H23 lung): > 100 µM

COc1ccc2c(Cl)cc(NC(=O)Nc3c(C)cccc3C)nc2c1
GI50 (SK-MEL-5 melanoma): 18.1 µM
TGI (SK-MEL-5 melanoma): > 100 µM
GI50 (786-0 renal): 7.92 µM
TGI (786-0 renal): > 100 µM
GI50 (BT-549 breast): 36 µM
TGI (BT-549 breast): > 100 µM
GI50 (SW-620 colon): 38.9 µM
TGI (SW-620 colon): > 100 µM
GI50 (NCI-H522 lung): > 100 µM
TGI (NCI-H522 lung): > 100 µM
GI50 (DU-145 prostate): 28.4 µM
TGI (DU-145 prostate): > 100 µM
GI50 (T-47D breast): 22.5 µM
TGI (T-47D breast): > 100 µM
GI50 (SK-MEL-2 melanoma): 28.6 µM
TGI (SK-MEL-2 melanoma): 85 µM
GI50 (HCT-15 colon): 27.3 µM
TGI (HCT-15 colon): > 100 µM
GI50 (NCI-H23 lung): 76.9 µM
TGI (NCI-H23 lung): > 100 µM
